Activity calls are given as the source filed them. No cut-off for these calls is given here.
Assays:
SARS-CoV-2 [1] = assay: (§1) Antiviral activity against SARS CoV-2 Wuhan infected in African green monkey Vero E6 cells assessed as inhibition of viral replication pretreated for 15 mins followed by compound removal and induction of viral infection for 1 hr and subsequent removal of inoculum and further addition of media containing compound measured after 24 hrs by cell-based ELISA; assay type: functional, organism-based; settings: for IC50: Severe acute respiratory syndrome coronavirus 2, Wuhan, Vero C1008; for inhibition: Severe acute respiratory syndrome coronavirus 2, time 24.25 hrs
Vero C1008 = assay: Cytotoxicity against African green monkey Vero E6 cells assessed as cell viability at 5 uM incubated for 48 hrs by MTT assay; assay type: toxicity, cell-based; settings: chlorocebus sabaeus, vero c1008, 48 h, 5 µM
[2] = molecular target: Voltage-gated inwardly rectifying potassium channel KCNH2 (Homo sapiens, UniProt Q12809); assay: Inhibition of hERG extracted from membrane (unknown origin) incubated for 4 hrs by fluorescence polarization assay; assay type: toxicity, cell membranes
SARS-CoV-2 [3] = assay: as §1, with “virus inactivation at 10 uM” for “inhibition of viral replication”, “48” for “24”, “RT-qPCR analysis relative to control” for “cell-based ELISA”; assay type: functional
SARS-CoV-2 [4] = assay: as §1, with “48” for “24”, “RT-qPCR analysis” for “cell-based ELISA”; assay type: functional, organism-based; settings: Severe acute respiratory syndrome coronavirus 2, time 48.25 hrs
SARS-CoV-2 [5] = assay: as §1, with “virus inactivation at 5 uM” for “inhibition of viral replication”, “48” for “24”, “RT-qPCR analysis relative to control” for “cell-based ELISA”; assay type: functional, Severe acute respiratory syndrome coronavirus 2; settings: time 48.25 hrs
SARS-CoV-2 [6] = assay: as §1, with “virus inactivation at 1 uM” for “inhibition of viral replication”, “48” for “24”, “RT-qPCR analysis relative to control” for “cell-based ELISA”; assay type: functional
[7] = Stability in human plasma assessed as half life at 2 uM measured up to 120 mins by LC-MS/MS analysis; assay type: ADME, cell-free
[8] = Stability in mouse plasma assessed as half life at 2 uM measured up to 120 mins by LC-MS/MS analysis; assay type: ADME, cell-free
[9] = Stability in mouse plasma assessed as compound remaining at 2 uM measured after 60 mins by LC-MS/MS analysis; assay type: ADME, cell-free; settings: read-out: Stability
[10] = Stability in human plasma assessed as compound remaining at 2 uM measured after 60 mins by LC-MS/MS analysis; assay type: ADME, cell-free; settings: read-out: Stability
[11] = Severe acute respiratory syndrome coronavirus 2, time 48.25 hrs

Sequence of Voltage-gated inwardly rectifying potassium channel KCNH2 (Q12809 whole entry): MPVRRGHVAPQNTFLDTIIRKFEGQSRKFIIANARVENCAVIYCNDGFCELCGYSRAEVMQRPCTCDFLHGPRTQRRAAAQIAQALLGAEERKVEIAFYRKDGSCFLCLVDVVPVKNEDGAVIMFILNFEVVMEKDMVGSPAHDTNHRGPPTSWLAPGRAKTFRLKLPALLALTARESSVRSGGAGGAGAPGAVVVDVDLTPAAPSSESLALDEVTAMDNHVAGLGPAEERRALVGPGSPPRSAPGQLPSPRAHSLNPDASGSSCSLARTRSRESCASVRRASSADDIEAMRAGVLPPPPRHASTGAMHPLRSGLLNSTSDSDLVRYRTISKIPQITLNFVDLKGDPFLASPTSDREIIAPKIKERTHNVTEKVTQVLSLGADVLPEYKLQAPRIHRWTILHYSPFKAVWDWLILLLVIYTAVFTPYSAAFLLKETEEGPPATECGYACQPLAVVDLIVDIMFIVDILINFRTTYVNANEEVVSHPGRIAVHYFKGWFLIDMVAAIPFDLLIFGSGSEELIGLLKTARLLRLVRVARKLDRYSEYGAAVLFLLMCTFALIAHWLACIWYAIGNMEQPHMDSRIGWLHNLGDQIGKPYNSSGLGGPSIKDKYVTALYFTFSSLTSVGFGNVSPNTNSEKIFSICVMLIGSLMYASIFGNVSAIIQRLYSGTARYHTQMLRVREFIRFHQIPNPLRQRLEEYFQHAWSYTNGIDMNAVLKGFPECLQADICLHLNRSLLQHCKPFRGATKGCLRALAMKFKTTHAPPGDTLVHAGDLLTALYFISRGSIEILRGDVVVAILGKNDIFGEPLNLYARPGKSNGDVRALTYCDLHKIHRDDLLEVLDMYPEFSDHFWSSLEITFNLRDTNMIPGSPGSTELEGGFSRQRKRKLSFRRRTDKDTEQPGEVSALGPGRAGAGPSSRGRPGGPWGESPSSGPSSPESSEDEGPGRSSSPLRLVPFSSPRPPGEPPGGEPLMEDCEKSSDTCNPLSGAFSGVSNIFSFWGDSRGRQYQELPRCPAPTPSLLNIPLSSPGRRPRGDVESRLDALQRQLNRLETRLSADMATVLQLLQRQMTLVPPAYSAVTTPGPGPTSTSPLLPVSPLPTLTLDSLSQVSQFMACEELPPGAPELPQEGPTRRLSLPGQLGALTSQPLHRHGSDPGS

Structure (SMILES)	IC50 (SARS-CoV-2 [1]) [µM]	Activity (Vero C1008)	Activity (SARS-CoV-2 [3]; [11])	inhibition (SARS-CoV-2 [4])	other results
CC(C)N1CCN(C(=O)c2c(CSc3ccccc3)n(C)c3cc(Br)c(O)cc23)CC1	3.05	Non-toxic	–	–	IC50 [2]: 1.19 µM
CCOC(=O)c1c(CSc2c(C)cc(C)cc2C)n(Cc2ccc(C)cc2)c2cc(Br)c(O)c(CN(C)C)c12	10	Non-toxic	Not determined; No Significant Effect Observed	–	IC50 [2]: 3.85 µM
CCOC(=O)c1c(CSc2ccc(F)cc2)n(Cc2ccc(C)cc2)c2cc(Br)c(O)cc12	–	Non-toxic	Not active; No Significant Effect Observed	Not active; No Significant Effect	–
CCOC(=O)c1c(CSc2ccccc2)n(Cc2cccc3ccccc23)c2cc(Br)c(O)cc12	–	–	Not active; No Significant Effect Observed	–	inhibition (SARS-CoV-2 [1]): inactive
CCOC(=O)c1c(CSc2ccc(F)cc2)n(Cc2cccc3ccccc23)c2cc(Br)c(O)cc12	–	Non-toxic	–	–	inhibition (SARS-CoV-2 [1]): inactive; Activity (SARS-CoV-2 [5]): >90%; Activity (SARS-CoV-2 [6]; [11]): Not active; No Significant Effect Observed
CCOC(=O)c1c(CSc2ccc(F)cc2)n(Cc2ccc(F)cc2)c2cc(Br)c(O)cc12	–	Non-toxic	–	Not active; No Significant Effect	Activity (SARS-CoV-2 [5]): >95%
CCOC(=O)c1c(CSc2ccccc2OC(F)(F)F)n(C)c2cc(Br)c(O)cc12	–	–	Not active; No Significant Effect Observed	Not active; No Significant Effect	–
CN1CCC(NC(=O)c2c(CSc3ccc(F)cc3)n(C)c3cc(Br)c(O)cc23)CC1	3.8	Non-toxic	–	–	–
CC(C)N1CCC(NC(=O)c2c(CSc3ccc(F)cc3)n(C)c3cc(Br)c(O)cc23)CC1	–	–	–	–	inhibition (SARS-CoV-2 [1]): inactive
CCOC(=O)c1c(CSc2ccc(C)cc2C)n(C)c2cc(Br)c(O)c(CN(C)C)c12	1.5	Non-toxic	–	–	Activity (SARS-CoV-2 [5]): >99%; IC50 [2]: 0.65 µM; Activity (SARS-CoV-2 [6]; time 48.25 hrs): >99%
Cn1c(CSc2ccc(F)cc2F)c(C(=O)NC(C)(C)C)c2cc(O)c(Br)cc21	4.6	Non-toxic	–	–	–
CCOC(=O)c1c(CSc2ccccc2)n(C)c2cc(Br)c(O)cc12	8.4	Non-toxic	–	–	Activity (SARS-CoV-2 [6]; time 48.25 hrs): <90%
CCOC(=O)c1c(CSc2c(C)cc(C)cc2C)n(Cc2cccc3ccccc23)c2cc(Br)c(O)cc12	–	Non-toxic	Not active; No Significant Effect Observed	–	inhibition (SARS-CoV-2 [1]): inactive
Cn1c(CSc2ccc(F)cc2)c(C(=O)Nc2cc[nH]n2)c2cc(O)c(Br)cc21	2.3	Non-toxic	–	–	IC50 [2]: > 30 µM
CCOC(=O)c1c(CSc2ccc(F)cc2F)n(C)c2cc(Br)c(O)cc12	–	–	Not active; No Significant Effect Observed	inactive	inhibition (SARS-CoV-2 [1]): inactive
CCOC(=O)c1c(CSc2ccc(F)cc2)n(C)c2cc(Br)c(O)cc12	–	Non-toxic	–	–	inhibition (SARS-CoV-2 [1]): inactive; Activity (SARS-CoV-2 [3]; time 48.25 hrs): 99.9%; Activity (SARS-CoV-2 [6]; time 48.25 hrs): <90%
CCOC(=O)c1c(CSc2ccc(F)cc2)n(C)c2cc(Br)c(O)c(CN(C)C)c12	–	Non-toxic	–	Not active; No Significant Effect	–
CC(C)[N+](C)(CCOC(=O)C1c2ccccc2Oc2ccccc21)C(C)C [PROPANTHELINE]	–	–	–	–	half-life at 2 µM [7]: 21.3 min; half-life at 2 µM [8]: 52.1 min; remaining at 1 h, 2 µM [9]: 17.4%; remaining at 1 h, 2 µM [10]: 2.04%
CCOC(=O)c1c(CSc2ccc(F)cc2C)n(Cc2ccc(C)cc2)c2cc(Br)c(O)cc12	10	Non-toxic	–	–	Activity (SARS-CoV-2 [5]): >50%; Activity (SARS-CoV-2 [6]; [11]): Not active; No Significant Effect Observed
CCOC(=O)c1c(CSc2c(C)cc(C)cc2C)n(C)c2cc(Br)c(O)c(CN(C)C)c12	–	Non-toxic	Not determined; No Significant Effect Observed	Not active; No Significant Effect	–
CCOC(=O)c1c(CSc2ccc(F)cc2C)n(Cc2cccc3ccccc23)c2cc(Br)c(O)cc12	–	Non-toxic	Not active; No Significant Effect Observed	–	inhibition (SARS-CoV-2 [1]): inactive
CC(C)N1CCC(NC(=O)c2c(CSc3ccccc3)n(C)c3cc(Br)c(O)cc23)CC1	6.6	Non-toxic	–	–	IC50 [2]: 7.09 µM
CC(C)N1CCN(C(=O)c2c(CSc3ccc(F)cc3)n(C)c3cc(Br)c(O)cc23)CC1	1.7	Non-toxic	–	–	–

Structure (SMILES)	IC50 (SARS-CoV-2 [1]) [µM]	Activity (Vero C1008)	Activity (SARS-CoV-2 [3]; [11])	inhibition (SARS-CoV-2 [4])	other results
CCOC(=O)c1c(CSc2ccccc2C(F)(F)F)n(C)c2cc(Br)c(O)cc12	–	–	Not active; No Significant Effect Observed	Not active; No Significant Effect	–
CCOC(=O)c1c(CSc2ccc(F)cc2C)n(Cc2ccc(F)cc2)c2cc(Br)c(O)cc12	12.7	Non-toxic	–	Not active; No Significant Effect	Activity (SARS-CoV-2 [5]): >95%; Activity (SARS-CoV-2 [6]; [11]): Not active; No Significant Effect Observed
CCOC(=O)c1c(CSc2ccc(C)cc2C)n(Cc2ccc(C#N)cc2)c2cc(Br)c(O)cc12	–	Non-toxic	Not active; No Significant Effect Observed	Not active; No Significant Effect	–
CCOC(=O)c1c(CSc2c(C)cc(C)cc2C)n(C)c2cc(Br)c(O)cc12	8.75	Non-toxic	Not determined; No Significant Effect Observed	–	–
CCOC(=O)c1c(CSc2ccc(C)cc2C)n(Cc2ccc(-c3ccccc3)cc2)c2cc(Br)c(O)cc12	–	Non-toxic	Not active; No Significant Effect Observed	Not active; No Significant Effect	–
CCOC(=O)c1c(CSc2ccccc2)n(Cc2ccc(F)cc2)c2cc(Br)c(O)cc12	1.1	Non-toxic	–	–	Activity (SARS-CoV-2 [5]): >99%; IC50 [2]: > 30 µM
CCOC(=O)c1c(CSc2ccccc2OC)n(C)c2cc(Br)c(O)cc12	–	–	Not active; No Significant Effect Observed	Not active; No Significant Effect	–
Cn1c(CSc2ccc(F)cc2)c(C(=O)NC(C)(C)C)c2cc(O)c(Br)cc21	–	–	–	–	inhibition (SARS-CoV-2 [1]): inactive
CCOC(=O)c1c(CSc2ccccc2OC(F)(F)F)n(C)c2cc(Br)c(O)c(CN(C)C)c12	–	–	Not active; No Significant Effect Observed	Not active; No Significant Effect	–
CCOC(=O)c1c(CSc2ccc(C)cc2C)n(Cc2ccc(F)cc2)c2cc(Br)c(O)cc12	–	Non-toxic	Not active; No Significant Effect Observed	Not active; No Significant Effect	–
Cc1ccc(Cn2c(CSc3c(C)cc(C)cc3C)c(C(=O)NC3CCN(C)CC3)c3cc(O)c(Br)cc32)cc1	–	Non-toxic	–	–	–
CCOC(=O)c1c(CSc2c(C)cc(C)cc2C)n(Cc2ccc(F)cc2)c2cc(Br)c(O)cc12	1.3	Non-toxic	–	–	Activity (SARS-CoV-2 [5]): >95%
CCOC(=O)c1c(CSc2ccccc2F)n(C)c2cc(Br)c(O)cc12	–	–	–	Not active; No Significant Effect	inhibition (SARS-CoV-2 [1]): inactive; Activity (SARS-CoV-2 [6]; time 48.25 hrs): <90%
Cn1c(CSc2ccccc2)c(C(=O)N2CCC(N3CCOCC3)CC2)c2cc(O)c(Br)cc21	3.1	Non-toxic	–	–	IC50 [2]: 13 µM
CCOC(=O)c1c(CSc2ccc(C)cc2C)n(Cc2ccc(C)cc2)c2cc(Br)c(O)cc12	2.1	Non-toxic	–	–	Activity (SARS-CoV-2 [5]): >99%; IC50 [2]: > 30 µM
CCC(CC)COC(=O)[C@H](C)N[P@](=O)(OC[C@H]1O[C@@](C#N)(c2ccc3c(N)ncnn23)[C@H](O)[C@@H]1O)Oc1ccccc1	0.76	–	–	–	–
CCOC(=O)c1c(CSc2ccc(C)cc2C)n(Cc2ccc(Cl)cc2)c2cc(Br)c(O)cc12	–	–	Not active; No Significant Effect Observed	Not active; No Significant Effect	–
Cn1cc(NC(=O)c2c(CSc3ccccc3)n(C)c3cc(Br)c(O)cc23)cn1	1.5	Non-toxic	–	–	–
CCOC(=O)c1c(CSc2ccccc2OC)n(C)c2cc(Br)c(O)c(CN(C)C)c12	–	–	Not active; No Significant Effect Observed	Not active; No Significant Effect	–
CCOC(=O)c1c(CSc2ccc(C)cc2C)n(Cc2ccc(C(C)(C)C)cc2)c2cc(Br)c(O)cc12	–	Non-toxic	Not active; No Significant Effect Observed	Not active; No Significant Effect	–
CCOC(=O)c1c(CSc2ccccc2C(F)(F)F)n(C)c2cc(Br)c(O)c(CN(C)C)c12	–	–	Not active; No Significant Effect Observed	Not active; No Significant Effect	–
CCOC(=O)c1c(CSc2ccccc2)[nH]c2cc(Br)c(O)cc12	–	Non-toxic	Not active; No Significant Effect Observed	Not active; No Significant Effect	–
